Results taken from PubChem BioAssay AID220 (DTP/NCI, 2004).
“And” between values parts separate entries of the source, which are not always exact repeats. Equal entries are not always repeated. Records with an inconclusive call do not appear.

System: CD8F1 mice, subcutaneous mammary adenocarcinoma, T/C%
Test: NCI In Vivo Anticancer Drug Screen. Data for tumor model Mammary Adenocarcinoma CD8F1 (subcutaneous) in CD8F1
Conditions: higher = larger tumour
Method in brief: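 Tumor-bearing mice, transplantable model; readout survival or tumor size; value = treated (T) / vehicle control (C).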

[1] = endpoint: median tumor weight (est.), dose: 25.0 mg/kg/injection, schedule: Q07DX005 (ip), vehicle: Klucel (hydroxypropylcellulose) (HPC)
[2] = endpoint: median tumor weight (est.), dose: 100.0 mg/kg/injection, schedule: Q07DX005 (ip), vehicle: Klucel (hydroxypropylcellulose) (HPC)

Compound: Cn1c2ccccc2c2ccc3c(c21)C(=O)C=CC3=O
- T/C (endpoint: median tumor weight change, dose: 62.5 mg/kg/injection, schedule: Q01DX001 (ip), vehicle: saline with Tween-80): 38 % of control

Compound: COC1=C(N)C(=O)c2nc(-c3nc(C(=O)O)c(C)c(-c4ccc(OC)c(OC)c4O)c3N)ccc2C1=O
- T/C (endpoint: median tumor weight (est.), dose: 0.1 mg/kg/injection, schedule: Q07DX005 (ip), vehicle: Klucel (hydroxypropylcellulose) (HPC)): 69 % of control
- T/C (endpoint: median tumor weight (est.), dose: 0.1 mg/kg/injection, schedule: Q07DX005 (ip), vehicle: saline): 16 % of control and 34 % of control
- T/C (endpoint: median tumor weight (est.), dose: 0.12 mg/kg/injection, schedule: Q07DX005 (ip), vehicle: Klucel (hydroxypropylcellulose) (HPC)): 10 % of control
- T/C (endpoint: median tumor weight (est.), dose: 0.2 mg/kg/injection, schedule: Q07DX005 (ip), vehicle: Klucel (hydroxypropylcellulose) (HPC)): 12 % of control
- T/C (endpoint: median tumor weight (est.), dose: 0.2 mg/kg/injection, schedule: Q07DX005 (ip), vehicle: saline): 11 % of control and 20 % of control
- T/C (endpoint: median tumor weight (est.), dose: 0.4 mg/kg/injection, schedule: Q07DX005 (ip), vehicle: Klucel (hydroxypropylcellulose) (HPC)): 7 % of control
- T/C (endpoint: median tumor weight (est.), dose: 0.4 mg/kg/injection, schedule: Q07DX005 (ip), vehicle: saline): 3 % of control
- T/C (endpoint: median tumor weight change, dose: 0.5 mg/kg/injection, schedule: Q01DX001 (ip), vehicle: Klucel (hydroxypropylcellulose) (HPC)): 32 % of control and 41 % of control

Compound: C=Cc1cnc([N+](=O)[O-])n1C
- T/C (endpoint: median tumor weight (est.), dose: 12.5 mg/kg/injection, schedule: Q07DX005 (ip), vehicle: Klucel (hydroxypropylcellulose) (HPC)): 122 % of control
- T/C [1]: 92 % of control
- T/C [2]: 42 % of control
- T/C (endpoint: median tumor weight (est.), dose: 200.0 mg/kg/injection, schedule: Q07DX005 (ip), vehicle: Klucel (hydroxypropylcellulose) (HPC)): 30 % of control

Compound: Nc1n[n+](-c2ccccc2)no1
- T/C (endpoint: median tumor weight (est.), dose: 3.12 mg/kg/injection, schedule: Q07DX005 (ip), vehicle: water): 82 % of control
- T/C (endpoint: median tumor weight (est.), dose: 50.0 mg/kg/injection, schedule: Q07DX005 (ip), vehicle: water): 10 % of control and 34 % of control
- T/C (endpoint: median tumor weight change, dose: 16.0 mg/kg/injection, schedule: Q01DX001 (ip), vehicle: water): 39 % of control
- T/C (endpoint: median tumor weight change, dose: 31.0 mg/kg/injection, schedule: Q01DX001 (ip), vehicle: water): 70 % of control
- T/C (endpoint: median tumor weight change, dose: 62.0 mg/kg/injection, schedule: Q01DX001 (ip), vehicle: water): 35 % of control

Compound: CC(=O)OCC1(C)NC(=O)c2ccccc2O1 (stereo not given)
- T/C (endpoint: median tumor weight (est.), dose: 12.5 mg/kg/injection, schedule: Q07DX005 (ip), vehicle: saline with Tween-80): 18 % of control
- T/C (endpoint: median tumor weight (est.), dose: 25.0 mg/kg/injection, schedule: Q07DX005 (ip), vehicle: saline with Tween-80): 40 % of control
- T/C (endpoint: median tumor weight (est.), dose: 50.0 mg/kg/injection, schedule: Q07DX005 (ip), vehicle: saline with Tween-80): 18 % of control
- T/C (endpoint: median tumor weight (est.), dose: 100.0 mg/kg/injection, schedule: Q07DX005 (ip), vehicle: saline with Tween-80): 37 % of control
- T/C (endpoint: median tumor weight (est.), dose: 200.0 mg/kg/injection, schedule: Q07DX005 (ip), vehicle: saline with Tween-80): 34 % of control
- T/C (endpoint: median tumor weight (est.), dose: 400.0 mg/kg/injection, schedule: Q07DX005 (ip), vehicle: saline with Tween-80): 24 % of control

Compound: CCC1OCC(C(Cl)CCl)O1 (stereo not given)
- T/C [1]: 93 % of control
- T/C (endpoint: median tumor weight (est.), dose: 50.0 mg/kg/injection, schedule: Q07DX005 (ip), vehicle: Klucel (hydroxypropylcellulose) (HPC)): 109 % of control
- T/C [2]: 74 % of control

Compound: O=C(O)C(O)C(O)C1[O][Sb][O]C1C(=O)O (stereo not given)
- T/C (endpoint: median tumor weight change, dose: 31.0 mg/kg/injection, schedule: Q01DX001 (ip), vehicle: saline): 115 % of control
- T/C (endpoint: median tumor weight change, dose: 62.0 mg/kg/injection, schedule: Q01DX001 (ip), vehicle: saline): 93 % of control

Compound: CC(C)[NH-].CC(C)[NH-].[Cl][Pt+2][Cl]
- T/C (endpoint: median tumor weight (est.), dose: 3.12 mg/kg/injection, schedule: Q07DX005 (ip), vehicle: dextrose): 106 % of control
- T/C (endpoint: median tumor weight (est.), dose: 6.25 mg/kg/injection, schedule: Q07DX005 (ip), vehicle: dextrose): 80 % of control
- T/C (endpoint: median tumor weight (est.), dose: 12.5 mg/kg/injection, schedule: Q07DX005 (ip), vehicle: dextrose): 42 % of control
- T/C (endpoint: median tumor weight (est.), dose: 25.0 mg/kg/injection, schedule: Q07DX005 (ip), vehicle: dextrose): 76 % of control
- T/C (endpoint: median tumor weight (est.), dose: 50.0 mg/kg/injection, schedule: Q07DX005 (ip), vehicle: dextrose): 27 % of control
- T/C (endpoint: median tumor weight (est.), dose: 100.0 mg/kg/injection, schedule: Q07DX005 (ip), vehicle: dextrose): 42 % of control
